Reference: patent publication US10118943B2, “Compounds and methods for inhibiting cell death” (Ramot at Tel-Aviv University Ltd., priority 2012, dated 2018)
Entries after “also recorded” stand apart in the source; their conditions may differ.

Columns and labels:
[1] = target: T1, full-length human EB3 recombinant protein (Homo sapiens, UniProt Q9UPY8); test: Sulfolink coupling gel-NAP affinity chromatography with recombinant EB3, western analysis; type: binding; conditions: 2 mg soluble peptide incubated with recombinant EB3 and column beads
T1 construct: Full-length human EB3 was subcloned into pEX-N-His vector; 6xHis (N, cleaved yes); made in house; host or cells: E. coli BL21(DE3)
T1 sequence (Q9UPY8 whole entry): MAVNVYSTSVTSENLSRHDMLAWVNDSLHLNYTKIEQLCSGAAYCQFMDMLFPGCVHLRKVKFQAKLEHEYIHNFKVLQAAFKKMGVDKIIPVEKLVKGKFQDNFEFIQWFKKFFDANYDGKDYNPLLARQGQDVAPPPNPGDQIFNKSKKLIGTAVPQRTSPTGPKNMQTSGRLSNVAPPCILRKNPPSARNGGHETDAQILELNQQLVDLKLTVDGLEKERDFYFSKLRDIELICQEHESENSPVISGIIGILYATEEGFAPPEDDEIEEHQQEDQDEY
Description: Column load, flow through, wash and elution fractions were further analyzed by polyacrylamide gel electrophoresis, followed by western analysis with EB3 antibodies. […] Column chromatography, elution and western blots were performed as above. The extract fractions (flow, wash and elution) were separated by electrophoresis followed by protein detection (FIG. 6).

[2] = tested on: primary cortical neurons; test: PSD-95 density in primary cortical neuron culture; type: cell-based, rat; conditions: neurons treated for 2 hrs
Description: Methods: 1. Primary cultures of neurons were prepared as follows. Newborn rats were sacrificed on postnatal day 1. Cerebral cortex tissue was then dissected and dissociated individually from each pup with the Papain Dissociation System (PDS; Worthington Biochemical Corporation) according to the manufacturer's instructions. 2. Cells were fixed with ice cold methanol, blocked with 2% bovine serum albumin (BSA) and 5% normal goat serum in Tris buffered saline containing tween 20 (TBS-T; 20 mM Tris pH 7.5, 136.8 mM NaCl, and 0.05% v/v Tween 20), and incubated with primary antibody followed by the appropriate secondary antibody. 3. Primary antibodies that were used include: monoclonal anti PSD-95 (ab-2723, Abcam), monoclonal anti Tyr-α-tubulin antibody (YL1/2) (VMA1864, Abcys, Paris, France), polyclonal anti Glu-α-tubulin antibody (L4) (AbC0101, Abcys, Paris, France), DyLight 488-labeled secondary goat anti-mouse IgG, DyLight 633-labeled secondary goat anti-rabbit IgG (KPL, Gaithersburg, Md., USA), Cy3-conjugated secondary goat anti-Rat IgG, (Jackson ImmunoResearch). 4. Images were collected with a Leica SP5 confocal laser scanning microscope (Mannheim, Germany) with 63× oil immersion optics, laser lines at 488, 561, 633 nm. Identical confocal laser scanning microscopy (CLSM) parameters (e.g., scanning line, laser light, gain, and offset etc.) were used for control and NAP treated cells.
For instance, a PSD-95 expression assay using primary cortical neuron cultures established from suitable animals may be performed to confirm a compound's activity in promoting cell plasticity. More specifically, primary cultures of neurons are prepared by first taking cerebral cortex tissue from newborn rats on postnatal day 1. The cerebral cortex tissue is then dissected and dissociated individually from each animal. Cells are fixed with ice cold methanol, blocked (e.g., with bovine serum albumin (BSA) and normal goat serum), and incubated with primary antibody (e.g., monoclonal antibody against PSD-95), optionally followed by the appropriate secondary antibody for imaging purposes. Images of primary neuronal cultures are taken and compared between cultures with or without being exposed to a test compound. An increased PSD-95 expression is indicative of the test compound being capable of promoting or protecting cell plasticity, especially neuronal plasticity.
Cerebral cortex tissue from newborn rats was dissected and dissociated individually from each pup with the Papain Dissociation System (PDS), (Worthington Biochemical Corporation) according to the manufacturer's instructions. Cortical neurons were maintained in Neurobasal medium (NB), (Gibco) supplemented with NeuroCult B27-SM1 ([…]), 1% Glutamax (Gibco), and grown on poly-D-lysine-coated cell culture glass cover slips.
Images were collected with a Leica SP5 confocal laser scanning microscope (Mannheim, Germany) with 63× oil immersion optics, laser lines at 488, 561, 633 nm or with LSM 510 META (Zeiss, Jena, Germany) confocal laser scanning microscope with 63× oil immersion optics, laser lines at 488, 568, 633 nm. When comparing fluorescence intensities, identical CLSM parameters (e.g., scanning line, laser light, gain, and offset etc.) were used. All of the fluorescent signals acquired were above the autofluorescent background as measured from a control slide stained with secondary antibody without a primary antibody. To compare the relative levels of protein expression, the average integrated density (AID) image analysis procedure was used for cell immunostains. In brief, integrated density is defined by the sum of the values of the pixels in the selected region of interest (ROI). This is equivalent to the product of Area and Mean Gray Value. AID for the positive stained area was determined by measuring the fluorescent intensity of the ROI, which is above the positive cut-off intensity. […]

[3] = tested on: PC12 cells; conditions: ZnCl2 400 μM, increasing concentrations of peptide

“NAPVSKIPQ (synthetic novel peptide core sequence SKIP derived from hybrid microtubule end-binding protein 3 (EB3)- binding microtubule plus-end tracking proteins (+TIPs) and activity-dependent neurotrophic factor (ADNF) active core site (NAP))” was tested, and the “competition for EB3 binding to column-bound NAP” value [1] was “no binding of EB3 to the column bound NAP”, the “derivative peptides effect on PSD-95 density vs vehicle controls (FIG. 10c)” value [2] was “paralleled to NAPVSIPQ activity; also recorded: significantly increased” and the “protection against zinc-induced cell death” value [3] was “protected by the addition of SKIP, over a wide range of concentrations”.
